These results are taken from US20140378551A1, “Composition for the Prophylactic Treatment of Neuropathic Pain” (Universite d'Auvergne, priority 2011, published 2014).

The test system of this assay is tyrosine 1472 of the NR2B sub-unit of the NMDA receptor. As to the kind of experiment: Western blot of phosphorylated tyrosine 1472 of NR2B at the spinal level. It is filed as in vivo, rat. The method, then:
The effects of memantine are also evaluated in the expression of the phosphorylation of tyrosine 1472 of the NR2B sub-unit of the NMDA receptor at the spinal level by the Western-blot technique.
The rats are sacrificed by decapitation. The lumbar enlargements (L4-L6) are collected and subjected to lysis at 4° C. in 400 μL of stop buffer (50 mM Hepes, pH 7.5, containing 150 mM NaCl, 10 mM EDTA, 10 mM Na2P2O7, 2 mM Na3VO4, 100 mM NaF 1% Triton, 0.5 mM PMSF, 100 UI/mL Iniprol and 20 μM Leupeptine).
After sonication, two operations of centrifugation at 14,000 rpm at 4° C. are used to retrieve the proteins from the cytoplasm. The supernatant is retrieved and the proteins are determined by colorimetry (BC Assay UP40840A®, Interchim). They are denatured at 100° C. for five minutes in a buffer Tris 100 mM, pH 6.8, containing 6% SDS, 20% Glycerol and 20% bromophenol/(β-mercaptoethanol. Electrophoresis is used to separate the proteins on a polyacrylamide gel. The migration is done at 90 mA for two hours in the following buffer: Tris 50 mM, pH 7.4, containing 380 mM Glycine and 7 mM SDS. The proteins are then transferred to a nitrocellulose membrane (Millipore) for three hours in a buffer Tris 25 mM, pH 8.3, containing 190 mM Glycine, 20% methanol (percentage by volume). The protocols are carried out according to the recommendations of the supplier and differ according to the antibody considered.
After blocking of the non-specific sites with a solution containing 5% of non-fat dried milk, the membrane is incubated throughout the night at […] under agitation with the antibody of interest diluted in the blocking solution, namely an anti-pTyr^1472 NR2B antibody recognizing NR2B phosphorylated on tyrosine 1472 (dilution by volume=1/1000, Millipore).
The membrane is then hybridized for one hour under agitation with an antibody coupled with peroxydase (dilution by volume=1/10 000, Pierce) diluted in the blocking buffer.
The developing is done by chemiluminescence (Super Signal® West Pico
Chemiluminescent Substrate, Pierce). […]

On to `CC12CC3CC(C)(C1)CC(N)(C3)C2` [memantine, 1-amino-3,5-dimethyl-adamantane], for which the “rate of phosphorylation of the tyrosine 1472 residue of NR2B” value (SNL rats treated preventively, spinal cord, Western blot) was “equivalent firstly to that of the non-treated Sham rats and is secondly far lower than that of the operated rats that have not been treated with memantine”. Further, the “phosphorylation of the tyrosine 1472 residue of NR2B” value (Sham rats, spinal cord, Western blot) is “does not significantly diminish the phosphorylation of the tyrosine 1472 residue”. Besides, the “phosphorylation of the tyrosine residue at position 1472 (pTyr1472) of NR2B” value (summary statement) is reported as “significantly inhibits the phosphorylation”.
